Laboratory results: publication PMC7450057, “Enhancing intracellular accumulation and target engagement of PROTACs with reversible covalent chemistry” (Nature Communications, 2020)
Values joined by “and” are separate entries in the source; they are usually repeats but may differ in a detail not shown here. Equal entries are not always repeated.

Tests used:
MOLM-14 cells = assay: AlamarBlue cell viability assay, MOLM-14; details: Supplementary Figure 7, replicates
Experimental: The IC50 was calculated using GraphPad Prism software with a four-parameter dose-response curve fit.

BTK-NanoLuc fusion = molecular target: T1, BTK-NanoLuc fusion (Homo sapiens, UniProt Q06187); assay: NanoBRET BTK in-cell target engagement assay; assay type: cell-based; details: for IC50: HEK-293 cells, BTK tracer 1.0 µM, Table 1 / Fig. 3c, triplicates, read-out: BTK TE IC50,TE; for K′P,D (relative intracellular accumulation coefficient): Kd (BTK)/IC50,TE (BTK); for intracellular accumulation of RC-1 relative to the compound: from K′P,D values, BTK (Table 1)
T1 construct: host or cells: HEK 293T/17
T1 sequence (Q06187 whole entry, the tested form may be a part): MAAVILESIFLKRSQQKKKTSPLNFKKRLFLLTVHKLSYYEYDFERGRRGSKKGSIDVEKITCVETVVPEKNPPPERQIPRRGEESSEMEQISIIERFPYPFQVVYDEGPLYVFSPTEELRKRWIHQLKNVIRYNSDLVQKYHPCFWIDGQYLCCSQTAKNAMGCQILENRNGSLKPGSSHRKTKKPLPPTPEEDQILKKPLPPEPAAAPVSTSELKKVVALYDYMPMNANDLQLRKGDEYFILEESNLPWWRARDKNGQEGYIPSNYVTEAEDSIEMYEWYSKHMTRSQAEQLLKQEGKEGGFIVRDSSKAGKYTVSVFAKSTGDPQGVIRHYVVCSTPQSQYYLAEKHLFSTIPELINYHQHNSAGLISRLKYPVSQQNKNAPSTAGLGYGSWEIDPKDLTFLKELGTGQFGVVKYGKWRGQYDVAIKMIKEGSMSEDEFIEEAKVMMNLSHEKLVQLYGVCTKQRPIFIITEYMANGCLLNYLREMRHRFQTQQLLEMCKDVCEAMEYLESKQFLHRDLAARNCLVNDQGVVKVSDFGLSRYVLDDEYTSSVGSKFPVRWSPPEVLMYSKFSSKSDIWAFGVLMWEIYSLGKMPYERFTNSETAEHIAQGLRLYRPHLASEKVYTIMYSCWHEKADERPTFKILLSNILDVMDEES
Experimental: The target engagement assay for BTK or CRBN was from Promega (BTK kit, Cat. No. N2500; CRBN kit, Cat. No. CS1810C136) and was performed according to the manufacture’s instruction with some modifications. Briefly, HEK 293/T17 cells (ATCC) were transiently transfected with BTK-NanoLuc® fusion vector or NanoLuc®-CRBN fusion vector (Promega) in 0.125 M CaCl2 and 1x HBS. Forty-eight hours after transfection, the cells were resuspended in Opti-MEM medium (Life Technologies, Cat. No. 11058021) at the density of 2 × 10^5 cells per mL and were plated into 96-well plates (Corning, Cat. No. CLS3600). Cells were incubated with 1.0 µM (BTK) or 0.5 µM (CRBN) NanoBRET™ Tracer and serially diluted unlabeled BTK PROTAC compounds (from 10 to 0.0032 µM, 5-fold dilution) for 2 h at 37 °С with 5% CO2 in an incubator. After 2 h incubation, the 3X Nano-Glo® Substrate with NanoLuc® extracellular inhibitor were added to cells and developed for 3 min at room temperature. BRET signals were collected using a BioTek SYNERGY H1 microplate reader equipped with a 450/80-nm BP filter for donor emission and a 610-nm LP filter for acceptor emission. BRET Ratio was calculated with the equation: [(Acceptor sample/Donor sample)–(Acceptor no tracer control/Donor no tracer control)] × 1000. The IC50 of the compound against its BTK or CRBN tracer was calculated using GraphPad Prism software.

full-length BTK protein = molecular target: T2, full-length BTK protein (Homo sapiens, UniProt Q06187); assay: BTK binding assay (Kd, Eurofins DiscoverX); details: for Kd: full-length BTK, standard assay buffer in the presence of DTT (6 mM) (DiMe compounds: BTK_+DTT per Supplementary Data 1), duplicates
T2 construct: Kd was measured using the full-length BTK protein by Eurofins DiscoverX; T7 phage fusion or DNA tag for qPCR (generic vendor protocol); purchased Eurofins DiscoverX
T2 sequence (Q06187 whole entry, the tested form may be a part): as above
Experimental: The dissociation equilibrium constant Kd was measured using the full-length BTK protein by Eurofins DiscoverX according to the following protocol: kinase-tagged T7 phage strains were prepared in an E. coli host derived from the BL21 strain. E. coli were grown to log-phase and infected with T7 phage and incubated with shaking at 32 °C until lysis. The lysates were centrifuged and filtered to remove cell debris. The remaining kinases were produced in HEK-293 cells and subsequently tagged with DNA for qPCR detection. […] The liganded beads were blocked with excess biotin and washed with blocking buffer (SeaBlock (Pierce), 1% BSA, 0.05% Tween 20, 1 mM DTT) to remove unbound ligand and to reduce non-specific binding. […] Test compounds were prepared as 111X stocks in 100% DMSO. […] The compounds were then diluted directly into the assays such that the final concentration of DMSO was 0.9%. All reactions performed in polypropylene 384-well plate. Each was a final volume of 0.02 mL. […] The kinase concentration in the eluates was measured by qPCR. For kinase-binding constant determination, an 11-point 3-fold serial dilution of each test compound was prepared in 100% DMSO at 100x final test concentration and subsequently diluted to 1x in the assay (final DMSO concentration = 1%). […] Binding constants (Kd values) were calculated with a standard dose-response curve using the Hill equation: Response=Background+Signal−Background/1+KdHillSlope/Dose^HillSlope
The Hill Slope was set to −1. Curves were fitted using a non-linear least square fit with the Levenberg-Marquardt algorithm.

Row | IC50 (BTK-NanoLuc fusion) | K′P,D (relative intracellular accumulation coefficient) (BTK-NanoLuc fusion) | intracellular accumulation of RC-1 relative to the compound (BTK-NanoLuc fusion) | Kd (full-length BTK protein) | SMILES | Cell viability, MOML-14 (MOLM-14 cells; drug concentration 1.00E-05 M) | Cell viability, MOML-14 (MOLM-14 cells; drug concentration 1.60E-08 M) | Cell viability, MOML-14 (MOLM-14 cells; drug concentration 2.00E-06 M) | Cell viability, MOML-14 (MOLM-14 cells; drug concentration 3.20E-09 M) | Cell viability, MOML-14 (MOLM-14 cells; drug concentration 4.00E-07 M) | Cell viability, MOML-14 (MOLM-14 cells; drug concentration 6.40E-10 M) | Cell viability, MOML-14 (MOLM-14 cells; drug concentration 8.00E-08 M) | other results
1 | – | – | – | – | CN(C/C=C/C(=O)N1CCC[C@@H](n2nc(-c3ccc(Oc4ccccc4)cc3)c3c(N)ncnc32)C1)CCOCCNC(=O)CNc1ccc2c(c1)C(=O)N(C1CCC(=O)NC1=O)C2=O (stereo partly shown) [IRC-10] | 75.82 and 58.3378 and 68.0769 and 46.8499 and 54.5004 | 97.1244 and 98.6788 and 78.5933 and 90.154 and 64.4582 | 114.76 and 85.758 and 93.5542 and 68.0284 and 77.3303 | 99.6503 and 95.7157 and 83.0135 and 73.4201 and 68.8541 | 101.229 and 92.1212 and 88.8668 and 84.1065 and 86.0252 | 105.091 and 113.591 and 102.055 and 78.059 and 83.1593 | 111.6 and 85.6366 and 80.0019 and 73.9301 and 92.4127 | –
2 | – | – | – | – | CN(C/C=C/C(=O)N1CCC[C@@H](n2nc(-c3ccc(Oc4ccccc4)cc3)c3c(N)ncnc32)C1)CCOCCNC(=O)CNc1cccc2c1C(=O)N(C1CCC(=O)NC1=O)C2=O (stereo partly shown) [IRC-3] | 33.9254 and 29.7755 and 25.5011 and 24.5466 and 23.5092 | 86.2431 and 93.4971 and 75.2168 and 81.4209 and 78.2878 | 87.4798 and 73.7851 and 74.2831 and 71.2537 and 90.0734 | 87.9238 and 88.7455 and 83.4544 and 84.1599 and 82.3547 | 86.2555 and 86.2763 and 83.0809 and 75.6111 and 85.2388 | 91.0487 and 98.1035 and 82.7281 and 78.682 and 82.9771 | 83.1182 and 78.35 (2×) and 67.9338 and 81.6492 | –
3 | – | – | – | – | CN(CCCC(=O)N1CCC[C@@H](n2nc(-c3ccc(Oc4ccccc4)cc3)c3c(N)ncnc32)C1)CCOCCNC(=O)CNc1ccc2c(c1)C(=O)N(C1CCC(=O)NC1=O)C2=O (stereo partly shown) [RNC-10] | 20.4373 and 14.3566 and 19.5812 and 10.2077 and 15.081 | 105.787 and 111.889 and 72.4196 and 87.9176 and 69.5658 | 69.7853 and 58.8313 and 63.507 and 54.1116 and 44.6942 | 101.374 and 90.2665 and 79.5759 and 58.2825 and 70.4 | 94.3057 and 78.2807 and 83.198 and 62.2338 and 64.8242 | 98.3448 and 99.8376 and 85.8542 and 80.1905 and 70.3561 | 101.967 and 84.7346 and 87.9396 and 100.716 and 97.1814 | –
4 | – | – | – | – | CN(CCCC(=O)N1CCC[C@@H](n2nc(-c3ccc(Oc4ccccc4)cc3)c3c(N)ncnc32)C1)CCOCCNC(=O)CNc1cccc2c1C(=O)N(C1CCC(=O)NC1=O)C2=O (stereo partly shown) [RNC-3] | 41.7673 and 39.1993 and 57.4163 and 48.1542 and 48.9004 | 96.7473 and 87.6169 and 107.151 and 102.3 and 127.409 | 75.1942 and 80.0887 and 89.5483 and 81.8665 and 89.4166 | 75.7649 and 76.4014 and 100.083 and 102.234 and 81.9543 | 62.3107 and 94.9036 and 99.6225 and 103.727 and 94.5305 | 107.063 and 96.7253 and 127.343 and 114.679 and 82.7444 | 77.6963 and 91.9187 and 116.522 and 86.0147 and 77.6085 | –
5 | 380 nM | 2.9 × 10^−2 | 5 folds | 11 nM | CN(CCCNC(=O)CNc1cccc2c1C(=O)N(C1CCC(=O)NC1=O)C2=O)C(C)(C)/C=C/C(=O)N1CCC[C@@H](n2nc(-c3ccc(Oc4ccccc4)cc3)c3c(N)ncnc32)C1 (stereo partly shown) [IRC-1-DiMe] | – | – | – | – | – | – | – | Signal (full-length BTK protein; BTK_+DTT, compound concentration 0.0169 nM, listed as IRC-DiMe): 3.35E-05 and 3.58E-05; Signal (full-length BTK protein; BTK_+DTT, compound concentration 0.152 nM, listed as IRC-DiMe): 3.30E-05 and 3.12E-05; Signal (full-length BTK protein; BTK_+DTT, compound concentration 0.457 nM, listed as IRC-DiMe): 3.59E-05 and 3.58E-05; Signal (full-length BTK protein; BTK_+DTT, compound concentration 1.37 nM, listed as IRC-DiMe): 2.65E-05 and 2.79E-05; Signal (full-length BTK protein; BTK_+DTT, compound concentration 4.12 nM, listed as IRC-DiMe): 2.70E-05 and 2.48E-05; Signal (full-length BTK protein; BTK_+DTT, compound concentration 12.3 nM): 1.55E-05; Signal (full-length BTK protein; BTK_+DTT, compound concentration 37 nM, listed as IRC-DiMe): 6.57E-06 and 5.81E-06; Signal (full-length BTK protein; BTK_+DTT, compound concentration 111 nM, listed as IRC-DiMe): 1.60E-06 and 1.57E-06; Signal (full-length BTK protein; BTK_+DTT, compound concentration 333 nM, listed as IRC-DiMe): 2.79E-07 and 2.98E-07; Signal (full-length BTK protein; BTK_+DTT, compound concentration 1000 nM, listed as IRC-DiMe): 9.10E-08 and 8.06E-08; Signal (full-length BTK protein; BTK_-DTT, compound concentration 12.3 nM): 1.59E-05
6 | 930 nM | 3.1 × 10^−2 | 5 folds | 29 nM | CN(CCCNC(=O)CNc1cccc2c1C(=O)N(C1CCC(=O)NC1=O)C2=O)C(C)(C)CC(C#N)C(=O)N1CCC[C@@H](n2nc(-c3ccc(Oc4ccccc4)cc3)c3c(N)ncnc32)C1 (stereo partly shown) [RNC-1-CN-DiMe] | – | – | – | – | – | – | – | Signal (full-length BTK protein; BTK_+DTT, compound concentration 0.0169 nM, listed as RNC-CN-DiMe): 2.50E-05 and 2.61E-05; Signal (full-length BTK protein; BTK_+DTT, compound concentration 0.152 nM): 3.53E-05; Signal (full-length BTK protein; BTK_+DTT, compound concentration 0.457 nM, listed as RNC-CN-DiMe): 3.21E-05 and 2.23E-05; Signal (full-length BTK protein; BTK_+DTT, compound concentration 1.37 nM, listed as RNC-CN-DiMe): 2.55E-05 and 2.14E-05; Signal (full-length BTK protein; BTK_+DTT, compound concentration 4.12 nM, listed as RNC-CN-DiMe): 2.68E-05 and 2.21E-05; Signal (full-length BTK protein; BTK_+DTT, compound concentration 12.3 nM, listed as RNC-CN-DiMe): 2.12E-05 and 1.99E-05; Signal (full-length BTK protein; BTK_+DTT, compound concentration 37 nM, listed as RNC-CN-DiMe): 1.30E-05 and 9.19E-06; Signal (full-length BTK protein; BTK_+DTT, compound concentration 111 nM, listed as RNC-CN-DiMe): 5.21E-06 and 4.55E-06; Signal (full-length BTK protein; BTK_+DTT, compound concentration 333 nM, listed as RNC-CN-DiMe): 1.18E-06 and 1.22E-06; Signal (full-length BTK protein; BTK_+DTT, compound concentration 1000 nM, listed as RNC-CN-DiMe): 2.41E-07 and 2.28E-07; Signal (full-length BTK protein; BTK_-DTT, compound concentration 0.152 nM): 2.77E-05
